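Step 1: Grow cells in 96-well plates. Step 2: Expose to compound for 48 hours at 5 concentrations. Step 3: Interpolate endpoints linearly; if unreached, use highest concentration. Abbreviation: GI50, concentration required for 50% inhibition of growth.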 The source made the active and inactive calls. Cut-off read from the data, not from the text of the source: active = GI50 up to about 1.1 µM and inactive = higher.

The text below walks through data of ChEMBL document CHEMBL1201862, “PubChem BioAssay data set” (2004).

Among the test systems are CAKI-1; DU-145; HCC 2998; HCT-15; HOP-62; KM12; MDA-MB-435; NCI-H23; OVCAR-3; OVCAR-4; SF-295; SK-MEL-2; SK-MEL-5; SNB-75; SR; UACC-257; UACC-62.
Assay in all cases: inhibition of tumour cell growth, NCI panel, 48 h

With `C=C1C(=O)[C@@]23CC[C@@H]4[C@@]5(C)CCC[C@@]4(OC5=O)[C@@]2(C)CC[C@@H]1C3`, the GI50 with CAKI-1 was 0.863 µM (active); in the test with DU-145 it was 3.78 µM (inactive); in the test with HCC 2998 it was 2.19 µM (inactive); in the test on HCT-15, 0.67 µM; in the test with HOP-62, 2.84 µM (inactive); in the test on KM12 it was 2.59 µM (inactive). Also, the GI50 with MDA-MB-435 is 1.83 µM (inactive); with NCI-H23, 1.94 µM (inactive); with OVCAR-3, 1.78 µM (inactive); in the test on OVCAR-4, 2.38 µM (inactive); with SF-295 it was 5.06 µM (inactive); in the test on SK-MEL-2, 2.13 µM (inactive). For the same compound, the GI50 in the test on SK-MEL-5 is 0.962 µM (active); with SNB-75, 2.8 µM (inactive); in the test with SR, 0.955 µM (active); in the test with UACC-257, 1.49 µM (inactive); in the test on UACC-62, 1.48 µM (inactive).

As to `CSc1nc2c(c(=O)[nH]1)N=C(c1ccc(Cl)cc1)CC(c1ccccc1)N2` (stereo not given), the GI50 in the test on CAKI-1 was 20 µM (inactive); in the test with DU-145 it was 20.7 µM (inactive); in the test with HCC 2998, 15.5 µM (inactive); in the test with HOP-62, 17.9 µM (inactive); in the test with KM12, 16.4 µM (inactive); in the test with MDA-MB-435, 17.9 µM (inactive). The GI50 is 14.7 µM (inactive) with NCI-H23; 15.2 µM (inactive) in the test with OVCAR-3; 11.5 µM (inactive) in the test with OVCAR-4; 18.6 µM (inactive) in the test on SF-295; 14.1 µM (inactive) with SK-MEL-2; 13.3 µM (inactive) in the test on SK-MEL-5. In addition, the GI50 is 12.1 µM (inactive) in the test with SNB-75, 37.8 µM (inactive) in the test on SR, 16.2 µM (inactive) with UACC-257 and > 10 µM (inactive) with UACC-62.

`O=c1ccc(=O)c2c1c1[nH]c3ccccc3c1c1c(=O)c3ccccc3c(=O)c21`: the GI50 was 6.71 µM (inactive) in the test on CAKI-1; > 10 µM (inactive) with DU-145; > 10 µM (inactive) with HCC 2998; more than 10 µM in the test on HCT-15; > 10 µM (inactive) in the test on HOP-62; > 10 µM (inactive) with KM12. Besides, the GI50 in the test on MDA-MB-435, with NCI-H23, in the test with OVCAR-3, in the test on OVCAR-4, with SF-295 and in the test with SK-MEL-2 was > 10 µM (inactive) in each case. The GI50 with SK-MEL-5, in the test with SNB-75, in the test with SR, with UACC-257 and with UACC-62 was > 10 µM (inactive) throughout.

As to `COc1ccccc1OC(=O)/C=C/c1ccccc1`, the GI50 in the test with CAKI-1 is > 100 µM (inactive); with DU-145, > 100 µM (inactive); in the test with HCC 2998, > 100 µM (inactive); with HCT-15, more than 100 µM; with HOP-62, 52.1 µM (inactive); in the test on KM12, > 100 µM (inactive). The GI50 was > 100 µM (inactive) with MDA-MB-435; > 100 µM (inactive) with NCI-H23; > 100 µM (inactive) with OVCAR-3; > 100 µM (inactive) in the test on OVCAR-4; 40.2 µM (inactive) in the test with SF-295; > 100 µM (inactive) in the test with SK-MEL-2. Further, the GI50 with SK-MEL-5 is > 100 µM (inactive); in the test with SNB-75, > 100 µM (inactive); in the test with SR, > 100 µM (inactive); in the test with UACC-257 it was 35.8 µM (inactive); with UACC-62, > 100 µM (inactive).

As to `CC(C)(C)OC(=O)NCCNCCNc1ccccc1`, the GI50 with CAKI-1 is > 100 µM (inactive); in the test with DU-145 it was 90.8 µM (inactive); with HCC 2998, > 100 µM (inactive); in the test on HCT-15 it was more than 100 µM; in the test on HOP-62 it was > 100 µM (inactive); with KM12, > 100 µM (inactive). In addition, the GI50 in the test with MDA-MB-435, in the test with NCI-H23, with OVCAR-3, with OVCAR-4, in the test on SF-295 and in the test on SK-MEL-2 was > 100 µM (inactive) in each case. Further, the GI50 in the test with SK-MEL-5 was 62.1 µM (inactive); in the test with SNB-75 it was 58.2 µM (inactive); with SR, > 100 µM (inactive); in the test on UACC-257 it was > 100 µM (inactive); with UACC-62 it was > 100 µM (inactive).

In the case of `COC/C=C\[C@]1(O)CCCC[C@@H]1CC(OC)OC`, the GI50 is > 100 µM (inactive) in the test with CAKI-1; > 100 µM (inactive) in the test on DU-145; > 100 µM (inactive) with HCC 2998; more than 100 µM in the test with HCT-15; > 100 µM (inactive) in the test on HOP-62; > 100 µM (inactive) in the test with KM12. For the same compound, the GI50 with MDA-MB-435, in the test with NCI-H23, with OVCAR-3, with OVCAR-4, in the test with SF-295 and with SK-MEL-2 was > 100 µM (inactive) each time. In addition, the GI50 with SK-MEL-5 was > 100 µM (inactive); with SNB-75 it was > 100 µM (inactive); in the test on SR it was 81.1 µM (inactive); in the test with UACC-257, > 100 µM (inactive); with UACC-62, > 100 µM (inactive).

As to `N/N=C1\CCCc2c1no[n+]2[O-]`, the GI50 was > 100 µM (inactive) with CAKI-1; > 100 µM (inactive) with DU-145; > 100 µM (inactive) in the test on HCC 2998; more than 100 µM in the test with HCT-15; > 100 µM (inactive) in the test with HOP-62; > 100 µM (inactive) in the test with KM12. The GI50 with MDA-MB-435, in the test with NCI-H23, with OVCAR-3, in the test with OVCAR-4, in the test on SF-295 and with SK-MEL-2 was > 100 µM (inactive) in each case. The GI50 in the test on SK-MEL-5, in the test with SNB-75, in the test with SR, in the test on UACC-257 and in the test with UACC-62 was > 100 µM (inactive) throughout.

`Cc1ccc2[nH]c3c(c2c1)CCC/C3=N/N=C(N)N`: the GI50 with CAKI-1 was 1.39 µM (inactive); in the test with DU-145, 1.71 µM (inactive); in the test on HCC 2998, 1.7 µM (inactive); with HOP-62, 1.91 µM (inactive); in the test on KM12, 1.63 µM (inactive); in the test on MDA-MB-435, 1.72 µM (inactive). The GI50 was 3.06 µM (inactive) with NCI-H23; 2.64 µM (inactive) in the test on OVCAR-3; 2.76 µM (inactive) with OVCAR-4; 1.65 µM (inactive) with SF-295; 1.69 µM (inactive) with SK-MEL-2; 1.9 µM (inactive) in the test on SK-MEL-5. The GI50 is 1.34 µM (inactive) with SNB-75, 2.22 µM (inactive) in the test with SR, 2.51 µM (inactive) in the test on UACC-257 and 2.16 µM (inactive) with UACC-62.

For the compound `Cn1cccc1-c1ccc(-c2ccc(CO)[se]2)[se]1`, the GI50 is 0.188 µM (active) in the test with CAKI-1; 17.5 µM (inactive) in the test with DU-145; 2.02 µM (inactive) in the test on HCC 2998; 12.6 µM with HCT-15; 21.6 µM (inactive) in the test on HOP-62; 8.99 µM (inactive) with KM12. The GI50 was 4.91 µM (inactive) with MDA-MB-435; 25.9 µM (inactive) in the test on NCI-H23; 4.02 µM (inactive) with OVCAR-3; 2.61 µM (inactive) in the test on OVCAR-4; 10.7 µM (inactive) in the test with SF-295; 28.8 µM (inactive) with SK-MEL-2. The GI50 was 11.4 µM (inactive) in the test on SK-MEL-5, 6.08 µM (inactive) in the test with SNB-75, 17.1 µM (inactive) with SR and 9.57 µM (inactive) with UACC-62.

`O=C1C(NCCc2cc(Br)c(O)c(Br)c2)=CC(=O)c2ncccc21`: the GI50 with CAKI-1 is 7.29 µM (inactive); in the test on DU-145, 3.66 µM (inactive); in the test on HCC 2998, 6.58 µM (inactive); with HCT-15, 5.79 µM; in the test on HOP-62, 3.28 µM (inactive); in the test on KM12, 4.43 µM (inactive). Further, the GI50 with MDA-MB-435 was 1.69 µM (inactive); in the test on NCI-H23, 0.659 µM (active); in the test with OVCAR-3, 1.84 µM (inactive); in the test with OVCAR-4, 6 µM (inactive); with SF-295 it was 2.34 µM (inactive); with SK-MEL-2 it was 8.07 µM (inactive). Besides, the GI50 was 1.47 µM (inactive) with SK-MEL-5; 1.31 µM (inactive) in the test with SNB-75; 1.87 µM (inactive) in the test on SR; 2.88 µM (inactive) in the test on UACC-257; 1.83 µM (inactive) with UACC-62.

For the compound `C=C1C2C[C@@H]3O[C@H]4C[C@H]5O[C@@]6(C[C@@H]7O[C@]8(C[C@H](C)[C@@H]9O[C@@H]%10CC(CO)O[C@@H]%10C[C@@H]9O8)C[C@H](C)[C@@H]7O6)C[C@H]5O[C@H]4[C@H](C)[C@H]3OC(=O)C[C@H]3CC[C@@H]4OC5[C@H]6O[C@]7(CC[C@H]8CC(=C)[C@H](CC[C@@H](C[C@H]1C)O2)O8)CC6O[C@@H]5[C@@H](O7)[C@H]4O3` (stereo not given in full), the GI50 in the test with CAKI-1 was < 0.0001 µM (active); in the test on DU-145, < 0.0001 µM (active); in the test on HCC 2998 it was < 0.0001 µM (active); with HCT-15, less than 0.0001 µM; in the test with HOP-62, < 0.0001 µM (active); in the test on KM12 it was < 0.0001 µM (active). Also, the GI50 was < 0.0001 µM (active) in the test with MDA-MB-435; < 0.0001 µM (active) in the test on NCI-H23; < 0.0001 µM (active) in the test with OVCAR-3; > 0.635 µM (active) with OVCAR-4; < 0.0001 µM (active) with SF-295; < 0.0001 µM (active) in the test with SK-MEL-2. The GI50 with SK-MEL-5, in the test on SNB-75, with SR, in the test with UACC-257 and with UACC-62 was < 0.0001 µM (active) in each case.

Regarding `Nc1nc(N)c2cc(Sc3cccc(C(F)(F)F)c3)ccc2n1` [WR-159412], the GI50 is 1.17 µM (inactive) in the test on CAKI-1; 0.982 µM (active) in the test with DU-145; 1.39 µM (inactive) in the test on HCC 2998; 0.499 µM in the test on HCT-15; 2.12 µM (inactive) with HOP-62; 2.59 µM (inactive) with KM12. Also, the GI50 in the test with MDA-MB-435 is 0.662 µM (active); in the test on NCI-H23, 2.99 µM (inactive); with OVCAR-3 it was 3.87 µM (inactive); in the test with OVCAR-4, 6.78 µM (inactive); in the test with SF-295, 0.656 µM (active); in the test with SK-MEL-2, 2.23 µM (inactive). For the same compound, the GI50 is 3.71 µM (inactive) in the test on SK-MEL-5, 3.17 µM (inactive) in the test on SNB-75, 0.843 µM (active) in the test on SR and 0.755 µM (active) in the test on UACC-62.
